# Where “and” joins values, the source holds several entries; their conditions need not be identical. Equal entries are not always repeated.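 1) Cells in 96-well plates. 2) Compound, 48 h, 5 concentrations. 3) Linear interpolation between surrounding doses. 4) Unreached endpoint = highest concentration. GI50: concentration for 50% inhibition of growth. Definition used: TGI = concentration required for complete inhibition of growth.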
# Columns and labels:
# Assay in all cases: NCI anticancer screen, dose series, 48 h
# MCF7 breast = tested on: MCF7 breast
# U251 CNS = tested on: U251 CNS
# NCI-H226 lung = tested on: NCI-H226 lung
# SNB-19 CNS = tested on: SNB-19 CNS
# HCT-15 colon = tested on: HCT-15 colon
# HOP-92 NSCLC = tested on: HOP-92 NSCLC
# T-47D breast = tested on: T-47D breast
# COLO 205 colon = tested on: COLO 205 colon
# SK-MEL-5 melanoma = tested on: SK-MEL-5 melanoma
# CCRF-CEM leukemia = tested on: CCRF-CEM leukemia
Structure (SMILES),GI50 (MCF7 breast) [µM],TGI (MCF7 breast) [µM],GI50 (U251 CNS),TGI (U251 CNS) [µM],GI50 (NCI-H226 lung) [µM],TGI (NCI-H226 lung) [µM],GI50 (SNB-19 CNS) [µM],TGI (SNB-19 CNS) [µM],GI50 (HCT-15 colon) [µM],TGI (HCT-15 colon) [µM],GI50 (HOP-92 NSCLC) [µM],TGI (HOP-92 NSCLC) [µM],GI50 (T-47D breast) [µM],TGI (T-47D breast) [µM],GI50 (COLO 205 colon) [µM],TGI (COLO 205 colon) [µM],GI50 (SK-MEL-5 melanoma) [nM],TGI (SK-MEL-5 melanoma),GI50 (CCRF-CEM leukemia) [µM],TGI (CCRF-CEM leukemia)
COC(=O)c1cc2oc(/C=C3/SC(=S)N(NC(C)=O)C3=O)cc2n1C,11.6,> 100,16 µM,45,21.5,51.7,31.6,> 100,14.9,58.5,19.6,44.5,29.6,90.7,22.4,> 100,12600,26.2 µM,11.8,76 µM
C=C(C)C12OC1[C@@]1(C)C(=CC2=O)CCC(O)[C@@H]1C (stereo partly drawn),–,> 100,–,14.4,–,–,–,33.2,–,> 100,–,93.9,–,78.4,–,6.5,–,36.7 µM,–,8.82 µM
NC(N)=NS(=O)(=O)c1ccc(N=Nc2c(O)c(C(=O)O)cc3ccccc23)cc1,–,> 100,–,> 100,–,> 100,–,–,–,> 100,–,> 100,–,> 100,–,> 100,–,> 100 µM,–,> 100 µM
N#CCCC[Si]12OCCN(CCO1)CCO2,–,–,–,> 100,–,> 100,–,> 100,–,–,–,> 100,–,–,–,> 100,–,> 100 µM,–,> 100 µM
CN1C(=O)C(=O)N2c3ccc(Cl)cc3C3(c4ccccc4)N=CC12O3 (stereo not drawn),–,–,–,30.1,–,26.8,–,26.8,–,13.3,–,6.63,–,–,–,15,–,17.6 µM,–,17.5 µM
Cc1[cH-]c(=O)n(-c2ccccc2)n1.[Au+].[Au].c1ccc([PH+](c2ccccc2)c2ccccc2)cc1.c1ccc([PH+](c2ccccc2)c2ccccc2)cc1,–,–,4.97 µM and 13.1 µM,27.3,26.7,77.8,12.5,32.7,11.8,29.3,2.79,7.77,–,–,25.3,60.6,16800,36.2 µM,22.8,> 100 µM
Cn1cc(-c2cc3c(N4CCN(c5ncc([C@@](C)(N)c6ccc(F)cc6)cn5)CC4)ncnn3c2)cn1,2.56,> 100,3.67 µM,> 100,–,–,9.63,> 100,3.62,> 100,–,–,–,–,–,–,–,–,2.87,> 100 µM
CCOC(=O)C1Sc2ccccc2N=C1C (stereo not drawn),–,–,–,> 100,–,> 100,–,> 100,–,> 100,–,> 100,–,–,–,> 100,–,–,–,–
[O-][Cl+3]([O-])([O-])[O-].[O]=[Ru]=[O].c1ccc(-c2ccccn2)nc1.c1ccc(-c2ccccn2)nc1,–,–,> 100 µM,> 100,56.7,> 100,65.2,> 100,> 100,> 100,> 100,> 100,–,–,> 100,> 100,82500,> 100 µM,> 100,> 100 µM
Clc1ccc2cccc3c2c1C1OC3c2ccccc21 (stereo not drawn),–,–,–,> 100,–,> 100,–,> 100,–,–,–,> 100,–,–,–,> 100,–,–,–,> 100 µM
COc1cc2c(cc1OC)-c1cc(OC)c(OC)cc1C(CN(C)C)C2 (stereo not drawn),> 10,> 10,> 10 µM,> 10,> 10,> 10,> 10,> 10,> 10,> 10,9.97,> 10,> 10,> 10,–,–,> 10000,> 10 µM,> 10,> 10 µM
Cc1cc(Nc2ccc(C)c(Cl)c2)n2nc(C(F)(F)F)nc2n1,22.7,> 100,23.5 µM,> 100,23.2,> 100,29.4,> 100,23.6,> 100,18,59.4,17.5,76,23.5,70.1,14300,27.9 µM,–,–
C=C1C[C@H](O)[C@H](Br)C(C)(C)[C@@]12CCC(C)=C(Cl)C2,0.275,1.97,0.367 µM,12.2,–,–,0.683,14.1,0.269,1.27,0.208,0.802,0.15,11.3,0.157,0.51,253,0.866 µM,0.445,7.92 µM
CC(C)(C)[Si](C)(C)OC1[C@@H](O[Si](C)(C)C(C)(C)C)[C@@H](CNC(=O)NC(=O)C(F)(F)F)O[C@H]1n1cnc2c(NC(=O)Nc3ccccc3)ncnc21 (stereo partly drawn),2.05,8.07,7.4 µM,14.5,4.61,11.8,–,–,2.94,9.12,5.2,11.8,5.64,11.8,6.03,12.8,2720,9.18 µM,7.31,41.6 µM
Cc1ccc(NC2=C3CCCCC3OC2=O)cc1 (stereo not drawn),20.5,> 100,–,–,87.1,> 100,63.8,> 100,> 100,> 100,–,–,29.3,> 100,78.1,> 100,34900,> 100 µM,21.6,84.2 µM
CCC(C)SC1SCC2C(=O)N(C)C3(CC3C)C(=O)OCC(NC(=O)c3nc4ccccc4cc3O)C(=O)NC(C)C(=O)N(C)C1C(=O)N(C)C1(CC1C)C(=O)OCC(NC(=O)c1nc3ccccc3cc1O)C(=O)NC(C)C(=O)N2C (stereo not drawn),–,–,–,0.0172,–,0.000892,–,0.0296,–,0.0538,–,0.000585,–,0.00514,–,0.000194,0.0291,0.000112 µM and < 0.0142 µM,–,0.028 µM and < 0.013 µM
O=C1C(C(Nc2ccccc2)c2ccccc2)=C([O-])c2ccccc21.O=C1C(C(Nc2ccccc2)c2ccccc2)=C([O-])c2ccccc21.[Cu+2] (stereo not drawn),–,–,22.5 µM,65.4,–,–,> 100,> 100,52.4,> 100,40.9,> 100,–,–,32.1,> 100,7540,> 100 µM,–,–
O=c1c2cccnc2ncn1CCN1CCCCC1,–,–,–,> 100,–,> 100,–,> 100,–,–,–,> 100,–,–,–,> 100,–,> 100 µM,–,> 100 µM
CN(C)CC1CCCC/C1=N/O (stereo not drawn),–,–,–,> 100,–,> 100,–,–,–,> 100,–,> 100,–,–,–,> 100,–,> 100 µM,–,> 100 µM
CC(=O)[O-].CC(=O)[O-].O=C(N/N=C/c1cc(Cl)cc(Cl)c1O)c1ccncc1.[Cu+2],–,–,–,> 100,–,> 100,–,> 100,–,> 100,> 100,> 100,–,–,–,> 100,–,> 100 µM,–,> 100 µM

Structure (SMILES),GI50 (MCF7 breast) [µM],TGI (MCF7 breast) [µM],GI50 (U251 CNS),TGI (U251 CNS) [µM],GI50 (NCI-H226 lung) [µM],TGI (NCI-H226 lung) [µM],GI50 (SNB-19 CNS) [µM],TGI (SNB-19 CNS) [µM],GI50 (HCT-15 colon) [µM],TGI (HCT-15 colon) [µM],GI50 (HOP-92 NSCLC) [µM],TGI (HOP-92 NSCLC) [µM],GI50 (T-47D breast) [µM],TGI (T-47D breast) [µM],GI50 (COLO 205 colon) [µM],TGI (COLO 205 colon) [µM],GI50 (SK-MEL-5 melanoma) [nM],TGI (SK-MEL-5 melanoma),GI50 (CCRF-CEM leukemia) [µM],TGI (CCRF-CEM leukemia)
COc1ccc(/C=C/COC(C)=O)cc1OC,–,–,–,> 100,–,> 100,–,> 100,–,> 100,–,> 100,–,–,–,> 100,–,> 100 µM,–,–
CN(C)C=Nc1nc(=O)n(C2CCC(CO)O2)cc1F (stereo not drawn),–,–,–,> 100,–,> 100,–,> 100,–,> 100,–,> 100,–,–,–,> 100,–,> 100 µM,–,> 100 µM
O=C1OCC2=C1C(c1cccc(Br)c1)c1cc3c(cc1N2CCO)OCCO3 (stereo not drawn),0.103,> 50,0.0596 µM,6.07,0.072,0.738,0.0846,> 50,0.0766,> 50,–,–,0.379,> 41.3,0.079,0.371,34.8,0.252 µM,0.0763,> 26.3 µM
Cc1nc(-c2nc(C)c(C(=O)NNC(=O)C[n+]3ccccc3)s2)sc1C(=O)NNC(=O)C[n+]1ccccc1,–,–,–,> 100,–,> 100,–,> 100,–,> 100,–,> 100,–,–,–,> 100,–,> 100 µM,–,> 100 µM
CCOC(=O)n1cc(C2=C(c3ccc(OC)c(OC)c3)COC2=O)c2ccccc21,0.0336,> 100,0.0536 µM,> 100,0.0548,> 100,0.0551,> 100,0.0408,> 100,0.161,> 52.8,–,–,0.0522,0.94,41,0.48 µM,0.0367,> 100 µM
COC1=CC(=O)C(C2(OC(C)C)OC(=O)C(Cl)=C2Cl)=CC1=O (stereo not drawn),–,> 100,–,–,–,> 100,–,> 100,–,> 100,–,> 100,–,> 100,–,> 100,–,> 100 µM,–,> 100 µM
O=C(O)CSc1n[nH]c(-c2ccccc2O)n1,–,–,–,> 100,–,> 100,–,> 100,–,> 100,–,> 100,–,–,–,–,–,> 100 µM,–,> 100 µM
C#Cc1cccc(Nc2nc3cc([N+](=O)[O-])ccc3nc2Nc2ccc(O)cc2)c1,2.2,6.11,1.8 µM,3.71,–,–,1.78,3.19,–,–,1.79,3.6,1.93,6.24,1.9,3.71,1790,3.23 µM,1.33,6.01 µM
CCCOc1nc(N)c2cnn(C3CCCCO3)c2n1 (stereo not drawn),–,–,–,> 100,–,> 100,–,> 100,–,> 100,–,> 100,–,–,–,> 100,–,> 100 µM,–,> 100 µM
CN(C)C(=S)/N=c1\ssc(=S)n1C1CCCCC1,–,–,–,37.9,–,> 100,–,> 100,–,> 100,–,96.6,–,–,–,–,–,73.2 µM,–,46.1 µM
O=S1C(=c2ccc(=C3Sc4ccccc4S3)cc2)Sc2ccccc21 (stereo not drawn),–,–,–,28.2,–,34,–,30.7,–,28.9,–,> 100,–,–,–,> 100,–,33.3 µM,–,> 100 µM
Cc1ccc(S(=O)(=O)N2CCC2c2ccccc2)cc1 (stereo not drawn),–,–,–,> 100,–,> 100,–,> 100,–,> 100,–,78.8,–,–,–,> 100,–,> 100 µM,–,> 100 µM
O=c1[nH]c(-c2ccccc2)nc2cc(Cl)ccc12,–,–,–,> 100,–,> 100,–,–,–,> 100,–,–,–,–,–,–,–,> 100 µM,–,> 100 µM
COc1c(CC(C)=O)ccc2c1C(=O)c1ccc(C=O)c(OC(C)=O)c1C2=O,–,–,–,36.8,–,36.2,–,57.4,–,29.5,–,44.1,–,–,–,31.6,–,27.8 µM,–,55.9 µM
CN(C)CC1CCC/C1=N/OC(=O)c1ccccc1 (stereo not drawn),–,–,–,> 100,–,> 100,–,–,–,> 100,–,> 100,–,–,–,> 100,–,> 100 µM,–,> 100 µM
C=C1C(=O)O[C@H]2[C@H]1CC/C(CNC(=O)c1cc3ccccc3[nH]1)=C\CC[C@@]1(C)O[C@@H]21,–,–,1.68 µM,3.26,2.58,10.7,7.73,23,0.439,1.72,1.57,3.46,1.65,4.8,1.16,2.6,1720,3.65 µM,0.375,1.76 µM
COc1ccc2c(c1)[n+]([O-])c(C(N)=O)c(N)[n+]2[O-],–,–,–,> 100,–,> 100,–,> 100,–,> 100,–,> 100,–,–,–,46.2,–,> 100 µM,–,–
O=C(NC1C=CCC2C(=O)N(c3ccccc3)C(=O)C12)OCc1ccccc1 (stereo not drawn),–,–,–,> 100,–,> 100,–,> 100,–,–,–,> 100,–,–,–,> 100,–,> 100 µM,–,> 100 µM
C[C@@H]1CC[C@H]2C(C)(C)[C@H]3C[C@@]12CC[C@@]3(C)O,–,> 100,–,–,–,> 100,–,> 100,–,> 100,–,> 100,–,> 100,–,> 100,–,> 100 µM,–,> 100 µM
